Literature values, collected in patent US11298425B2, “Delivery of a chemotherapy agent across the blood-brain barrier” (ROWLESBIOMED, LLC, priority 2018, dated 2022).
Read-outs that look alike come from different tables or passages of the source.

Experiments:
[1] = humans, measured in the tissues of human cadavers
[2] = pigs
[3] = mice
[4] = rats

Structure (SMILES) | brain-to-blood ratio [1] | brain-to-blood ratio [2] | brain-to-blood ratio [3] | brain-to-blood ratio [4]
CCCCCc1cc(O)c2c(c1)OC(C)(C)[C@@H]1CCC(C)=C[C@@H]21 [THC, tetrahydrocannabinol] | 3.0 | 2.6 | 1.6 | 2.0
CCCc1cc(O)c2c(c1)OC(C)(C)[C@@H]1CCC(C)=C[C@@H]21 [THCV, tetrahydrocannabivarin] | – | – | even higher than THC | –
